Experiments:
[1] = target: phosphorylated FGFR3 (SEQ ID NO: 5, amino acids 449 to 759) (Homo sapiens (Human), UniProt P22607); experiment: FGFR enzyme binding assay (HTRF tracer displacement), FGFR3; details: 5 nM phosphorylated FGFR3, average of multiple determinations if made
Outline: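 Compounds were tested for displacement of a tracer from human FGFR kinase in a time-resolved FRET binding format. After 60 minutes at 22° C, signal was read at two wavelengths and converted to percent of control, normalised between untreated wells and 1 μM reference inhibitor.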

[2] = target: HEK-293 cells transfected with dox-inducible human wild type FGFR3 (Homo sapiens (Human), UniProt P22607); experiment: FGFR3 pERK cell assay; format: cell-based; details: HEK-293 dox-inducible FGFR3, 1 hour compound, 100 ng/ml FGF-acidic; maximum concentration 5 μM
Method: FGFR3 pERK Cell Assay: • HEK-293 cells transfected with dox-inducible human wild type FGFR3 (SEQ ID NO: 5) were plated in a collagen or poly-D-lysine coated 96 well flat bottom plates at 4×10^5 cells/well in complete DMEM medium containing 10% FBS and 1 μg/ml doxycycline and allowed to attach for 24 h at 37° C., 5% CO2. Cells were treated with compound using 1:3 serial dilutions with a maximum final concentration of 5 μM. Compound was incubated on cells for 1 hour at 37° C., 5% CO2. Cells were then stimulated with a final concentration of 100 ng/ml human FGF-acidic (R&D Systems Cat number 232-FA/CF) for 5 minutes at 37° C., 5% CO2. Medium was removed, and cells were lysed with lysis buffer containing phosphatase and protease inhibitors. Phospho ERK1/2 was measured using the Meso Scale Discovery sandwich assay (Meso Scale Discovery cat. no. K151DWD). The assay captures phospho ERK1/2 and detects with a sulfo-tagged total ERK1/2 antibody. The chemiluminescent signal was read on the Sector Imager Plate reader. 100 POC was determined using no test compounds and 0 POC was determined using a control compound. The POC values were fit to a 4-parameter logistic curve as a function of the concentration of the compound, and the IC50 value is the point where the curve crosses 50 POC.

[3] = target: FGFR1 (SEQ ID NO: 1, amino acids 458-765) (Homo sapiens (Human), UniProt P11362); experiment: LC/MS FGFR1 kobs assay (covalent protein modification); format: binding; details: 500 nM FGFR1, 3 μM compound
Outline: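 Covalent labeling of FGFR1 kinase domain (aa 458-765) tracked over time by intact-protein LC/MS after formic acid quench. kobs derived by fitting DMSO-normalized percent unmodified FGFR1 to an exponential decay model.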

[4] = target: recombinant human FGFR3 (amino acids R397-T806) (Homo sapiens (Human), UniProt P22607); experiment: FGFR3 enzyme activity assay (LanthaScreen TR-FRET); format: biochemical; details: 25 μM ATP, 10 min incubation at 22° C., average of multiple determinations if made, read-out: FGFR3 Enz FRET IC50
Outline: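 GST-HIS6-tagged human FGFR3 (R397-T806) was reacted with 100 nM Alexa Fluor 647-Poly-GT substrate and 25 μM ATP plus compound in HEPES/MgCl2/Triton buffer, pH 7.5, 2% DMSO, for 10 min at 22 °C.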

FGFR1 (SEQ ID NO: 1, amino acids 458-765), sequence (P11362 458-765): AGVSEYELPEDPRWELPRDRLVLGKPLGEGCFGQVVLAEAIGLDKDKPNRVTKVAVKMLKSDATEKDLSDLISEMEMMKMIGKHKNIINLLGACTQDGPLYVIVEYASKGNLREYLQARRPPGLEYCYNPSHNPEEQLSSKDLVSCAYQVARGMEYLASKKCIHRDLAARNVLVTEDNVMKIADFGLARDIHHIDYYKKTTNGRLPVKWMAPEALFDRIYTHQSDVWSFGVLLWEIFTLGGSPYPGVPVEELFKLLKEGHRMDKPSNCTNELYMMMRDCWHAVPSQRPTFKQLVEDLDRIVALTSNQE
recombinant human FGFR3 (amino acids R397-T806), sequence (P22607 397-806): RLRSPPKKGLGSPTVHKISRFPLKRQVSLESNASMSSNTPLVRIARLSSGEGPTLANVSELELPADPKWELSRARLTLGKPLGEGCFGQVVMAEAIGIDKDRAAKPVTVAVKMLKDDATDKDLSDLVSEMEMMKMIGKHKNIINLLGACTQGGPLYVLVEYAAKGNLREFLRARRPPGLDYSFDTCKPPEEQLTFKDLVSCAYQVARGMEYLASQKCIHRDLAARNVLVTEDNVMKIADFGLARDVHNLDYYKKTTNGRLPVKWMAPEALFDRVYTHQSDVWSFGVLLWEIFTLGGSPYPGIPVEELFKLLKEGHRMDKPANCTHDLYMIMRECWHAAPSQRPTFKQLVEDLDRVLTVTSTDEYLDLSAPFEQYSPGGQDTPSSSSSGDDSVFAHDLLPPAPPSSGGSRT
HEK-293 cells transfected with dox-inducible human wild type FGFR3, sequence (P22607 23-806): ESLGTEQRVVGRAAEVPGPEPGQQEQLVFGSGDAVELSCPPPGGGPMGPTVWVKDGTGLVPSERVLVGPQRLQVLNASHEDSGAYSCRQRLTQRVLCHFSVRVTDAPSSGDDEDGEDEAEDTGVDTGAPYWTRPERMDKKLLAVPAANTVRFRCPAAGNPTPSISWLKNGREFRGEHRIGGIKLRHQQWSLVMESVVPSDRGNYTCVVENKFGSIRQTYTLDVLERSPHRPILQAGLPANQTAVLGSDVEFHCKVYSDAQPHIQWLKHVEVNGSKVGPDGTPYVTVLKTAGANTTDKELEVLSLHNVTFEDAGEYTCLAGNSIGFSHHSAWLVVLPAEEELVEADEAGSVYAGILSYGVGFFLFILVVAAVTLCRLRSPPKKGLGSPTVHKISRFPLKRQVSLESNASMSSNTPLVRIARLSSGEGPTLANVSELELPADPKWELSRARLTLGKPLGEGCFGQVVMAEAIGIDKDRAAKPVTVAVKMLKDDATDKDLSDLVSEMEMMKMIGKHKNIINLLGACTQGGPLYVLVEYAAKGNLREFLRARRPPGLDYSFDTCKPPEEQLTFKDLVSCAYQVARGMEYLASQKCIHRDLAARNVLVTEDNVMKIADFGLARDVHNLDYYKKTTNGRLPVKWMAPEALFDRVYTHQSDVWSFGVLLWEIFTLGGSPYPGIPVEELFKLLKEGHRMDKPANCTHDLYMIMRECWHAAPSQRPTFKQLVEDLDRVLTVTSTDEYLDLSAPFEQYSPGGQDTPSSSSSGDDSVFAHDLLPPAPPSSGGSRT
phosphorylated FGFR3 (SEQ ID NO: 5, amino acids 449 to 759), sequence (P22607 449-759): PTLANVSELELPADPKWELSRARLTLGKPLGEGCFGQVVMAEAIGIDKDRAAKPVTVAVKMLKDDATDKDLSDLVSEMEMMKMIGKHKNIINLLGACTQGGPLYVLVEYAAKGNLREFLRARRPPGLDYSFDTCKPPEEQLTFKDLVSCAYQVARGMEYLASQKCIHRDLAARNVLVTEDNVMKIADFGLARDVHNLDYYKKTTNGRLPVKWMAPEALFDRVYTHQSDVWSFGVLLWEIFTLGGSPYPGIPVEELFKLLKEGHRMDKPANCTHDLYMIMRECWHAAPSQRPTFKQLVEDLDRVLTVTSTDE

Compound	IC50 [1] [nM]	IC50 [2] [nM]	FGFR1 Enz kobs [3] [min⁻¹]	IC50 [4] [nM]
COc1cc(-c2cnn(C3CCN(CC4(OC)CN(C(=O)/C=C/CN(C)C)C4)CC3)c2C)cn2ncc(Cl)c12 [Example 173, (E)-1-(3-((4-(4-(3-chloro-4-methoxypyrazolo [1,5-a]pyridin-6-yl)-5-methyl-1H-pyrazol-1-yl)piperidin-1-yl)methyl)-3-methoxyazetidin-1-yl)-4-(dimethylamino)but-2-en-1-one]	7	164	0.00434	41
C=CC(=O)N1CC(C(=O)N2CCN(c3cnc(-c4cc(OC)c5c(C#N)cnn5c4)cn3)CC2)C1 [Example 116, 6-(5-(4-(1-acryloylazetidine-3-carbonyl)piperazin-1-yl)pyrazin-2-yl)-4-methoxypyrazolo[1,5-a]pyridine-3-carbonitrile]	19	164	0.00277	27
C=CC(=O)N1CC(CN2CCC(n3ncc(-c4cc(OC)c5c(Cl)cnn5c4)c3C)CC2)C1(C)C (stereo not drawn) [Example 120, 1-(3-((4-(4-(3-chloro-4-methoxypyrazolo[1,5-a]pyridin-6-yl)-5-methyl-1H-pyrazol-1-yl)piperidin-1-yl)methyl)-2,2-dimethylazetidin-1-yl)prop-2-en-1-one]	33	142	0.00068	72
C=CC(=O)N1CC(F)(C(=O)N2CCN(c3ccc(-c4cc(OC)c5c(C#N)cnn5c4)cn3)CC2)C1 [Example 112, 6-(6-(4-(1-acryloyl-3-fluoroazetidine-3-carbonyl)piperazin-1-yl)pyridin-3-yl)-4-methoxypyrazolo[1,5-a]pyridine-3-carbonitrile]	4	21	0.00852	20
COc1cc(-c2cnn(C3CCN(C(=O)C4CN(C(=O)/C=C/CN5CCOCC5)C4)CC3)c2)cn2ncc(C#N)c12 [Example 184, (E)-4-methoxy-6-(1-(1-(1-(4-morpholinobut-2-enoyl)azetidine-3-carbonyl)piperidin-4-yl)-1H-pyrazol-4-yl)pyrazolo[1,5-a]pyridine-3-carbonitrile]	6	2830	0.00043	6
C=CC(=O)N1CC(C(=O)N2CCC3(C2)CN(c2ccc(-c4cc(OC)c5c(C#N)cnn5c4)cn2)C3)C1 [Example 103, 6-(6-(6-(1-acryloylazetidine-3-carbonyl)-2,6-diazaspiro[3.4]octan-2-yl)pyridin-3-yl)-4-methoxypyrazolo[1,5-a]pyridine-3-carbonitrile]	10	137	0.00388	20
COc1cc(-c2cnn(C3CCN(C(=O)C4CN(C(=O)/C=C/CO)C4)CC3)c2)cn2ncc(C#N)c12 [Example 141, (E)-6-(1-(1-(1-(4-hydroxybut-2-enoyl)azetidine-3-carbonyl)piperidin-4-yl)-1H-pyrazol-4-yl)-4-methoxypyrazolo [1,5-a]pyridine-3-carbonitrile]	6	3910	0.00014	6
COc1cc(-c2ccc(N3CCN(C(=O)C4(F)CN(C(=O)/C=C/CN(C)C)C4)CC3)nc2C)cn2ncc(C#N)c12 [Example 168, (E)-6-(6-(4-(1-(4-(dimethylamino)but-2-enoyl)-3-fluoroazetidine-3-carbonyl)piperazin-1-yl)-2-methylpyridin-3-yl)-4-methoxypyrazolo [1,5-a]pyridine-3-carbonitrile]	34	99	0.00847	72
C=CC(=O)N1CC2(CCN(C(=O)N3CCC(n4cc(-c5cc(OC)c6c(C#N)cnn6c5)cn4)CC3)C2)C1 [Example 8, 6-(1-(1-(2-acryloyl-2,6-diazaspiro[3.4]octane-6-carbonyl)piperidin-4-yl)-1H-pyrazol-4-yl)-4-methoxypyrazolo[1,5-a]pyridine-3-carbonitrile]	8	–	0.00124	3

Other lines, results leading:

IC50 [1] [nM]	IC50 [2] [nM]	FGFR1 Enz kobs [3] [min⁻¹]	IC50 [4] [nM]	Compound
5	21	0.0025	2	C=CC(=O)N1CC(C(=O)N2CCN(c3ccc(-c4cc(OC)c5c(C#N)cnn5c4)cc3)CC2)C1 [Example 100, 6-(4-(4-(1-acryloylazetidine-3-carbonyl)piperazin-1-yl)phenyl)-4-methoxypyrazolo[1,5-a]pyridine-3-carbonitrile]
11	1240	0.0016	18	C=CC(=O)N1CC(C(=O)N2CCN(c3ccc(-c4cc(OC)c5c(C#N)cnn5c4)nn3)CC2)C1 [Example 115, 6-(6-(4-(1-acryloylazetidine-3-carbonyl)piperazin-1-yl)pyridazin-3-yl)-4-methoxypyrazolo[1,5-a]pyridine-3-carbonitrile]
16	355	0.00291	27	C=CC(=O)N1CC(C(=O)N2C[C@H]3C[C@@H]2CN3c2ccc(-c3cc(OC)c4c(C#N)cnn4c3)cn2)C1 [Example 107, 6-(6-((1R,4R)-5-(1-acryloylazetidine-3-carbonyl)-2,5-diazabicyclo[2.2.1]heptan-2-yl)pyridin-3-yl)-4-methoxypyrazolo[1,5-a]pyridine-3-carbonitrile]
34	207	0.00486	229	COc1cc(-c2nn(C3CCN(C(=O)C4(F)CN(C(=O)/C=C/CN(C)C)C4)CC3)nc2C)cn2ncc(C#N)c12 [Example 163, (E)-6-(2-(1-(1-(4-(dimethylamino)but-2-enoyl)-3-fluoroazetidine-3-carbonyl)piperidin-4-yl)-5-methyl-2H-1,2,3-triazol-4-yl)-4-methoxypyrazolo [1,5-a]pyridine-3-carbonitrile]
8	318	–	5	COc1cc(-c2cnn(C3CCN(C(=O)C4CN(C(=O)C5=CCC5)C4)CC3)c2)cn2ncc(C#N)c12 [Example 137, 6-(1-(1-(1-(cyclobut-1-ene-1-carbonyl)azetidine-3-carbonyl)piperidin-4-yl)-1H-pyrazol-4-yl)-4-methoxypyrazolo[1,5-a]pyridine-3-carbonitrile]
3	–	0.00132	2	C=CC(=O)N1CC(C(=O)N2CCC(n3cc(-c4cc(-c5ccc(NC(=O)C6CC6)cc5F)c5c(C#N)cnn5c4)cn3)CC2)C1 [Example 130, N-(4-(6-(1-(1-(1-acryloylazetidine-3-carbonyl)piperidin-4-yl)-1H-pyrazol-4-yl)-3-cyanopyrazolo[1,5-a]pyridin-4-yl)-3-fluorophenyl)cyclopropane-carboxamide]
8	–	0.00131	12	C=CC(=O)N(C)c1ccc(C(=O)N2CCC(n3cc(-c4cc(OC)c5c(C#N)cnn5c4)cn3)CC2)cc1 [Example 178, N-(4-(4-(4-(3-cyano-4-methoxypyrazolo[1,5-a]pyridin-6-yl)-1H-pyrazol-1-yl)piperidine-1-carbonyl)phenyl)-N-methylacrylamide]
